ChEMBL document CHEMBL4477199, “Design and synthesis of novel bicalutamide and enzalutamide derivatives as antiproliferative agents for the treatment of prostate cancer” (Eur J Med Chem, 2016)

Key:
CWR22R = assay: Antiproliferative activity against human 22Rv1 cells after 96 hrs by propidium iodide staining based fluorescence 2D monolayer assay; type: functional, cell-based; settings: 22Rv1, 96 h
DU-145 = assay: Antiproliferative activity against human DU145 cells after 96 hrs by propidium iodide staining based fluorescence 2D monolayer assay; type: functional, cell-based; settings: DU-145, 96 h
LNCaP = assay: Antiproliferative activity against human LNCAP cells after 96 hrs by propidium iodide staining based fluorescence 2D monolayer assay; type: functional, cell-based
VCaP = assay: Antiproliferative activity against human VCaP cells after 96 hrs by propidium iodide staining based fluorescence 2D monolayer assay; type: functional, cell-based
[1] = 96 h
Description: Solubility in RPMI1640 culture medium at <30 uM incubated for 4 days by microscopic analysis

[2] = 33000 µM
Description: Solubility in 100% DMSO at 33 mM at -20 degC

Compound	IC50 (CWR22R)	IC50 (DU-145)	IC50 (LNCaP)	IC50 (VCaP)	solubility [1]	solubility [2]
CC(O)(COc1ccc(C(F)(F)F)cc1)C(=O)Nc1ccc([N+](=O)[O-])c(C(F)(F)F)c1 (centres undefined)	16.2 µM	25.9 µM	17.2 µM	10.9 µM	Soluble	Soluble
CC1(C)C(=O)N(c2cccc(C(F)(F)F)c2)C(=O)N1c1ccccc1C(F)(F)F	100 µM	100 µM	28.3 µM	100 µM	Soluble	Soluble
CC(O)(CS(=O)(=O)c1ccc(C(F)(F)F)cc1)C(=O)Nc1ccc(C#N)cc1C(F)(F)F (centres undefined)	27.9 µM	44.6 µM	32.9 µM	43.3 µM	Soluble	Soluble
CC(O)(COc1cccc(OC(F)(F)F)c1)C(=O)Nc1ccc(C(F)(F)F)cc1 (centres undefined)	15.4 µM	29.4 µM	2.16 µM	4.28 µM	Soluble	Soluble
C[C@](O)(CS(=O)(=O)c1ccc(F)cc1)C(=O)Nc1ccc(C#N)cc1C(F)(F)F	100 µM	100 µM	85.5 µM	100 µM	Soluble	Soluble
CC(O)(CS(=O)(=O)c1ccc(C(F)(F)F)cn1)C(=O)Nc1ccc([N+](=O)[O-])cc1C(F)(F)F (centres undefined)	100 µM	100 µM	100 µM	100 µM	Soluble	Soluble
CC(O)(COc1ccc(C(F)(F)F)cn1)C(=O)Nc1ccc(C#N)cc1C(F)(F)F (centres undefined)	100 µM	100 µM	100 µM	100 µM	Soluble	Soluble
CC(O)(COc1ccc(F)c(F)c1)C(=O)Nc1ccc(C#N)c(C(F)(F)F)c1 (centres undefined)	35.5 µM	45.2 µM	19 µM	25.6 µM	Soluble	Soluble
CC(O)(CS(=O)(=O)c1ccc(F)cc1)C(=O)Nc1ccc(C#N)cc1C(F)(F)F (centres undefined)	77 µM	100 µM	91.6 µM	65.2 µM	Soluble	Soluble
CC(O)(COc1cccc(OC(F)(F)F)c1)C(=O)Nc1ccc(C#N)cc1C(F)(F)F (centres undefined)	28.7 µM	35.9 µM	63.4 µM	56.3 µM	Soluble	Soluble
CC(O)(COc1ccc(F)cc1F)C(=O)Nc1ccc(C#N)cc1C(F)(F)F (centres undefined)	60.9 µM	99.5 µM	30.6 µM	50.6 µM	Soluble	Soluble
CC(O)(COc1cccc(C(F)(F)F)c1)C(=O)Nc1ccc(C(F)(F)F)cc1 (centres undefined)	25.7 µM	27.4 µM	18.2 µM	18.6 µM	Soluble	Soluble
CC(O)(CS(=O)(=O)c1ccc(OC(F)(F)F)cc1)C(=O)Nc1ccc(C#N)c(C(F)(F)F)c1 (centres undefined)	17 µM	27.3 µM	31.6 µM	32.8 µM	Soluble	Soluble
CC1(C)C(=O)N(c2ccc(C(F)(F)F)cc2)C(=O)N1c1ccc(C#N)c(C(F)(F)F)c1	63.6 µM	100 µM	9.37 µM	30.1 µM	Soluble	Soluble
CC(O)(COc1cccc(C(F)(F)F)c1)C(=O)Nc1ccc([N+](=O)[O-])c(C(F)(F)F)c1 (centres undefined)	8.58 µM	10 µM	9.91 µM	10.3 µM	Soluble	Soluble
CC(O)(CSc1ccccc1C(F)(F)F)C(=O)Nc1ccc(C(F)(F)F)cc1 (centres undefined)	5.2 µM	8.76 µM	7.22 µM	5.86 µM	Soluble	Soluble
CC(O)(COc1ccc(F)c(F)c1)C(=O)Nc1ccc(C#N)cc1C(F)(F)F (centres undefined)	37 µM	41.9 µM	34.8 µM	47.2 µM	Soluble	Soluble
CC(O)(CSc1ccc(C(F)(F)F)cn1)C(=O)Nc1ccc([N+](=O)[O-])cc1C(F)(F)F (centres undefined)	13.6 µM	19.7 µM	11.1 µM	17.2 µM	Soluble	Soluble
CC(O)(CSc1cccc(C(F)(F)F)c1)C(=O)Nc1ccc(C#N)cc1C(F)(F)F (centres undefined)	15.2 µM	21.1 µM	11.3 µM	23.5 µM	Soluble	Soluble
CC(O)(COc1ccccc1C(F)(F)F)C(=O)Nc1ccc(C#N)c(C(F)(F)F)c1 (centres undefined)	11.6 µM	17.3 µM	9.68 µM	16.6 µM	Soluble	Soluble

Compound	IC50 (CWR22R)	IC50 (DU-145)	IC50 (LNCaP)	IC50 (VCaP)	solubility [1]	solubility [2]
CC(O)(COc1ccc(C#N)c(F)c1)C(=O)Nc1ccc(C#N)cc1C(F)(F)F (centres undefined)	45.3 µM	68.8 µM	78.3 µM	77.2 µM	Soluble	Soluble
CC(O)(COc1ccc(C(F)(F)F)cc1)C(=O)Nc1ccc(C#N)cc1C(F)(F)F (centres undefined)	29.9 µM	32.4 µM	28.6 µM	23 µM	Soluble	Soluble
CC(O)(COc1cccc(OC(F)(F)F)c1)C(=O)Nc1ccc(C#N)c(C(F)(F)F)c1 (centres undefined)	9.79 µM	16.4 µM	9.83 µM	9.91 µM	Soluble	Soluble
CC(O)(CS(=O)(=O)c1ccccc1C(F)(F)F)C(=O)Nc1ccc(C#N)c(C(F)(F)F)c1 (centres undefined)	46.6 µM	55 µM	42.7 µM	58.6 µM	Soluble	Soluble
CC(O)(COc1ccc(C#N)cc1)C(=O)Nc1ccc([N+](=O)[O-])c(C(F)(F)F)c1 (centres undefined)	30.9 µM	32.7 µM	18.7 µM	26.9 µM	Soluble	Soluble
CC(O)(CSc1cccc(OC(F)(F)F)c1)C(=O)Nc1ccc(C(F)(F)F)cc1 (centres undefined)	15.9 µM	27.8 µM	13.9 µM	18.8 µM	Soluble	Soluble
CC(O)(CSc1cccc(OC(F)(F)F)c1)C(=O)Nc1ccc([N+](=O)[O-])cc1C(F)(F)F (centres undefined)	15.8 µM	21.6 µM	9.15 µM	15.9 µM	Soluble	Soluble
CC(O)(COc1ccc(F)cc1F)C(=O)Nc1ccc(C#N)c(C(F)(F)F)c1 (centres undefined)	34 µM	44.3 µM	37.3 µM	38.7 µM	Soluble	Soluble
CC(O)(COc1ccc(OC(F)(F)F)cc1)C(=O)Nc1ccc(C#N)c(C(F)(F)F)c1 (centres undefined)	17.2 µM	18.4 µM	13.6 µM	17.6 µM	Soluble	Soluble
CC(O)(COc1ccc(C(F)(F)F)cc1)C(=O)Nc1ccc([N+](=O)[O-])cc1C(F)(F)F (centres undefined)	18.9 µM	22.1 µM	13.6 µM	18.6 µM	Soluble	Soluble
CC(O)(CS(=O)(=O)c1ccccc1C(F)(F)F)C(=O)Nc1ccc(C#N)cc1C(F)(F)F (centres undefined)	98.8 µM	100 µM	74 µM	100 µM	Soluble	Soluble
CC1(C)C(=O)N(c2ccc(C(F)(F)F)cc2)C(=O)N1c1cccc(C(F)(F)F)c1	100 µM	100 µM	5.95 µM	72.4 µM	Soluble	Soluble
CC(O)(CS(=O)(=O)c1cccc(C(F)(F)F)c1)C(=O)Nc1ccc(C#N)c(C(F)(F)F)c1 (centres undefined)	21 µM	39.1 µM	14.9 µM	39.7 µM	Soluble	Soluble
CC(O)(COc1ccc(C#N)cc1)C(=O)Nc1ccc(C#N)cc1C(F)(F)F (centres undefined)	42.9 µM	100 µM	34.7 µM	61.4 µM	Soluble	Soluble
CC(O)(CS(=O)(=O)c1cccc(C(F)(F)F)c1)C(=O)Nc1ccc(C#N)cc1C(F)(F)F (centres undefined)	34.4 µM	45.9 µM	32.1 µM	44.9 µM	Soluble	Soluble
C[C@](O)(CS(=O)(=O)c1ccccc1C(F)(F)F)C(=O)Nc1ccc(C#N)c(C(F)(F)F)c1	34.8 µM	44.3 µM	32.2 µM	37.3 µM	Soluble	Soluble
CC(O)(CS(=O)(=O)c1cccc(OC(F)(F)F)c1)C(=O)Nc1ccc([N+](=O)[O-])cc1C(F)(F)F (centres undefined)	18 µM	27.7 µM	12.2 µM	20.3 µM	Soluble	Soluble
CC(O)(CSc1ccc(OC(F)(F)F)cc1)C(=O)Nc1ccc(C#N)c(C(F)(F)F)c1 (centres undefined)	46.6 µM	64 µM	42.8 µM	40.3 µM	Soluble	Soluble
CC(O)(CSc1cccc(C(F)(F)F)c1)C(=O)Nc1ccc(C(F)(F)F)cc1 (centres undefined)	18.6 µM	30.7 µM	22.6 µM	19.5 µM	Soluble	Soluble
